Test results taken from paper PMC11109052, “Metabolism characterization and toxicity of N-hydap, a marine candidate drug for lung cancer therapy by LC–MS method” (Natural Products and Bioprospecting, 2024).
Read-outs that look alike come from different tables or passages of the source.

What was measured:
[1] = Pharmacokinetics studies in mice (plasma); assay type: in vivo
Procedure: Mice were fasted for 12 h with access to water before drug administration. N-Hydap was dissolved in a solution containing 50% methanol and water. Before administration, the drug was diluted with PBS to achieve concentrations of 5 mg/kg and 2 mg/kg for gastric gavage and tail vein administration, respectively. Blood samples (120 μL) were collected from the orbital venous plexus at 2, 5, 10, 15, 30, 60, 90, 120, 180, and 240 min after N-hydap administration. The blood samples were collected into heparinized micro-centrifuge tubes and immediately centrifuged at 8000 rpm for 5 min at 4 °C. Plasma samples were prepared by adding an internal standard (IS) solution, Tes to the samples, followed by vortexing. The mixtures were then centrifuged at 4 °C and 13,000 rpm for 15 min. The resulting supernatant was dried under vacuum for 3–4 h, and the dry powder was reconstituted with a solution of 50% methanol and water. Finally, the plasma samples were analyzed using LC–MS, following the previously described method.
DAS 2.0 was used to calculate pharmacokinetic parameters using the standard non-compartmental method. All results were presented as mean ± standard deviation and significant differences were analyzed using One-way ANOVA by GraphPad Prism 8. Statistical significance was defined as p < 0.05.

[2] = system: RLMs; test: Kinetics of N-hydap glucuronidation in RLMs; assay type: in vitro ADME, rat; settings: RLM
Procedure: In this study, the rats were executed by drawing blood from the abdominal aorta and mice were sacrificed with cervical dislocation before the liver and kidneys were excised. The liver and kidneys were removed, and washed with chilled cleansing solution (contains 8 mM KH2PO4, 5.6 mM EDTA·K2·2H2O, 1 mM DTT and 229.6 μM PMSF), homogenized in a tissue homogenate buffer with a pH of 7.4, (consisting of […], 8 mM K2HPO4, 250 mM sucrose, 1 mM EDTA·K2·2H2O and 229.6 μM PMSF). Subsequently, the homogenate was centrifuged at 10,400 rpm at 4 °C for 15 min, and the supernatant was then centrifuged at 35,000 rpm at 4 °C for 60 min. A 250 mM sucrose buffer was added to the pellet to reconstitute and the resuspension was stored at − 80 °C until use. Microsome protein concentrations were measured by Omni-Easy™ Instant BCA Protein Assay Kit.
Various microsomes including HLMs, HKMs, HIMs, RLMs, RKMs, MLMs and MKMs were involved in CYP and UGT reactions of N-hydap. […]
The substrate concentrations used for HLMs were 0.05, 0.5, 2, 2.5, 5, 10, 25, 50, and 100 μM. […] The rates of N-hydap-G by enzymes were expressed as nmol/mg/min, representing the amount of metabolites formed per minute per milligram of protein. Kinetic parameters were determined by analyzing the Eadie–Hofstee plots. […]

[3] = Stability in KPI solution (pH 7.4); assay type: physicochemical; settings: for stability, Accuracy (Bias, %): KPI
Procedure: To verify the feasibility and reliability of the established method, studies on the linearity, accuracy, precision, and stability of N-hydap in potassium phosphate buffer (KPI, pH 7.4, were prepared by mixing KH2PO4 and K2HPO4 in corresponding proportions, and then adding NaOH and H3PO4 to pH 7.4), plasma, and tissue homogenate were carried out. The peak area ratios (analyte/IS) were plotted against the concentrations of the analytes prepared to obtain the calibration curves. Least squares linear regression analysis was used to determine the slopes, intercepts, and determination coefficients (R^2) which should be 0.99 or above of calibration curves. The standard curve equations were determined as y = 0.0001512x + 0.04394 (R^2 = 0.9980) for KPI, y = 0.001579x − 0.09233 (R^2 = 0.9923) for plasma, and y = 0.002271x + 0.03542 (R^2 = 0.9978) for tissue homogenate (Supplementary Fig. 1A–C).
(§1) The stability of the KPI solution was examined after storage at 4 °C for 24 h and incubation at 37 °C for 4 h, which was conducted using the QC samples at three concentrations (five samples for each concentration). Stability in plasma and tissue homogenate was assessed by testing samples stored at both 4 °C and room temperature for 24 h.

[4] = Stability in plasma; assay type: in vitro ADME
Procedure: as §1

[5] = mouse, plasma, iv, mice, tail vein injection 2 mg/kg
[6] = mouse, plasma, mice, oral administration 5 mg/kg

CC1CCC2C(C=CC(C)C2C(=O)c2c(O)c(C3(O)CCC(O)C4OC43)cn(O)c2=O)C1 (stereo not drawn) [N-hydap, N-Hydroxyapiosporamide]
CL, experimental results ([1]; Table 4 experimental column): High clearance
CLz/F ([1]; mice, tail vein injection 2 mg/kg): 0.031 ± 0.001 L/min/kg
AUC(0-t) [1, 5]: 2.36 µM·h
Cmax [1, 5]: 4.79 ± 0.726 µM
Tmax [1, 5]: 3 min
half-life ([1]; mouse, plasma, iv, mice, tail vein injection 2 mg/kg, read-out: t1/2z): 61.2 ± 14.2 min
half-life ([1]; mouse, plasma, Table 4 experimental column, read-out: T1/2, experimental results): < 60 min
bioavailability ([1]; mouse, plasma, mice, oral 5 mg/kg vs tail vein 2 mg/kg, read-out: F (oral bioavailability)): 24%
AUC(0-t) [1, 6]: 1.41 µM·h
Cmax [1, 6]: 2.06 ± 0.951 µM
Tmax [1, 6]: 15 min
CL/F ([1]; mouse, plasma, mice, oral administration 5 mg/kg, read-out: CLz/F): 134 ± 39 mL/min/kg
half-life ([1]; mouse, plasma, mice, oral administration 5 mg/kg, read-out: t1/2z): 57.6 ± 12.7 min
Km [2]: 357 nM
results of the stability experiments ([3]; KPI solution, plasma and tissue homogenate, all storage conditions): no significant degradation
stability, Accuracy (Bias, %) ([3]; 200 nM, 4℃ for 24h): 113.85%
stability, Accuracy (Bias, %) ([3]; 200 nM, 37℃ for 4h): 87.75%
stability, Accuracy (Bias, %) ([3]; 600 nM, 4℃ for 24h): 105.48%
stability, Accuracy (Bias, %) ([3]; 600 nM, 37℃ for 4h): 85.75%
stability, Accuracy (Bias, %) ([3]; 2500 nM, 4℃ for 24h): 104.40%
stability, Accuracy (Bias, %) ([3]; 2500 nM, 37℃ for 4h): 97.32%
stability, Accuracy (Bias, %) ([4]; 200 nM, 4℃ for 24h): 113.9%
stability, Accuracy (Bias, %) ([4]; 200 nM, room temperature for 24h): 101.9%
stability, Accuracy (Bias, %) ([4]; 600 nM, 4℃ for 24h): 87.98%
stability, Accuracy (Bias, %) ([4]; 600 nM, room temperature for 24h): 105.23%
stability, Accuracy (Bias, %) ([4]; 2500 nM, 4℃ for 24h): 91.36%
stability, Accuracy (Bias, %) ([4]; 2500 nM, room temperature for 24h): 108.04%
